Reference: patent US10683291B2, “Heterocyclic compounds for the treatment of disease” (OPPILAN PHARMA LTD., priority 2015, dated 2020)

Key:
human S1P1 = human S1P1 (Homo sapiens (Human), UniProt P21453); test: GTPγS binding assay (scintillation proximity assay); format: biochemical; conditions: S1P1 membrane from CHO-K1 Gαqi5 cells expressing full-length human S1P1; GTPγ35S SPA
Method: S1P1 membrane is prepared from CHO-K1 Gαqi5 cells expression full-length human S1P1. Scintillation proximity assay (SPA) is performed by incubating membranes, GTPγ^35S, and compounds at various concentrations for 60 minutes. Wheat germ agglutinin-coated SPA beads are added and incubated for 60 minutes before centrifugation and scintillation counting.

lymphocyte count = test: Lymphocyte count in mice; format: in vivo; conditions: 10 mg/kg p.o., blood at 4 hr, FIG. 2
Method: A total of 6 mice were used in this study for each compound (Examples 1-6) and divided in two groups as Group 1 (vehicle, Dose: 10 mL/kg) and Group 2 (Compound, Dose: 10 mg/kg, p.o.). Animals in Group 1 were administered with vehicle. Animals in Group 2 were administered with solution formulation of PTC1566-1 at 10 mg/kg dose through oral route. Blood samples from Group 2 were collected under light isoflurane anesthesia from a set of three mice at 1 & 4 hr (p.o.) and from Group 1 blood samples were collected at 4 hr. Plasma was harvested by centrifugation of blood and stored at −70° C. until analysis. Brain was collected at 4 hr from Group 2 animals, weighed and transferred in a poly-propylene tube. Two volumes of PBS buffer (pH 7.4) was added and homogenized to get final volume of 3 times and stored below −70° C. until bioanalysis. Blood sample at 4 hr from both groups were used for lymphocyte count. Analysis Plasma and Brain samples were quantified by fit-for-purpose LCMS/MS method (LLOQ: 4.91 ng/mL for plasma and 14.73 ng/g for brain). For each of the six compounds tested, plasma concentration was greater than 2600 ng/mL at 1 hr and greater than 2100 ng/mL at 4 hr. For each of the six compounds tested, brain concentration was less than 200 ng/g. For each of the six compounds tested (Compound 15, Compound 18, Compound 19, Compound 16, Compound 11, and Compound 13), the lymphocyte count was less than 45% of control (FIG. 2).

Chain of human S1P1 (P21453 whole entry): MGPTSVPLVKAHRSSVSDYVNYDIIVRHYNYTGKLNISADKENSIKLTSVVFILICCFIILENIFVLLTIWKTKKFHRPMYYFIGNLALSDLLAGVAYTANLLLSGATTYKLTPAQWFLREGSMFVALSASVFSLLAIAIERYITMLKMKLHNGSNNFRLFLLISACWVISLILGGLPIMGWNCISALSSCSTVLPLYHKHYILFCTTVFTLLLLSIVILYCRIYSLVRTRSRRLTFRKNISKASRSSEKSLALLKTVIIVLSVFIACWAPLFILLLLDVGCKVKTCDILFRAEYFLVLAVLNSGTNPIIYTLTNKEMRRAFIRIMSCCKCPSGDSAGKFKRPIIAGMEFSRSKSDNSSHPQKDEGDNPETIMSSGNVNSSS

Structure (SMILES) | EC50 (human S1P1) [nM] | lymphocyte count (lymphocyte count)
O=C1CC[C@@H](COc2cc(Cl)c(-c3noc(-c4cn5cc(C(F)(F)F)cc(Cl)c5n4)n3)cc2Cl)N1 [Example 1, (S)-5-((2,5-dichloro-4-(5-(8-chloro-6-(trifluoromethyl)imidazo[1,2-a]pyridin-2-yl)-1,2,4-oxadiazol-3-yl)phenoxy)methyl)pyrrolidin-2-one] | < 1000 | less than 45 % of control
O=C1CC[C@H](COc2cc(Cl)c(-c3noc(-c4cn5cc(C(F)(F)F)cc(Cl)c5n4)n3)cc2Cl)N1 [Example 3, (R)-5-((2,5-dichloro-4-(5-(8-chloro-6-(trifluoromethyl)imidazo[1,2-a]pyridin-2-yl)-1,2,4-oxadiazol-3-yl)phenoxy)methyl)pyrrolidin-2-one] |  | less than 45 % of control
CN1C[C@@H](Oc2cc(Cl)c(-c3noc(-c4cn5cc(C(F)(F)F)cc(Cl)c5n4)n3)cc2Cl)CCC1=O [Example 4, (S)-5-(2,5-dichloro-4-(5-(8-chloro-6-(trifluoromethyl)imidazo[1,2-a]pyridin-2-yl)-1,2,4-oxadiazol-3-yl)phenoxy)-1-methylpiperidin-2-one] |  | less than 45 % of control

Continued, in another order:

EC50 (human S1P1) [nM] | Structure (SMILES) | lymphocyte count (lymphocyte count)
< 1000 | O=C1CC[C@@H](Oc2cc(Cl)c(-c3noc(-c4cn5cc(C(F)(F)F)cc(Cl)c5n4)n3)cc2Cl)CN1 [Example 5, (R)-5-(2,5-dichloro-4-(5-(8-chloro-6-(trifluoromethyl)imidazo[1,2-a]pyridin-2-yl)-1,2,4-oxadiazol-3-yl)phenoxy)piperidin-2-one] | less than 45 % of control
< 1000 | CN1C[C@H](Oc2cc(Cl)c(-c3noc(-c4cn5cc(C(F)(F)F)cc(Cl)c5n4)n3)cc2Cl)CCC1=O [Example 6, (R)-5-(2,5-dichloro-4-(5-(8-chloro-6-(trifluoromethyl)imidazo[1,2-a]pyridin-2-yl)-1,2,4-oxadiazol-3-yl)phenoxy)-1-methylpiperidin-2-one] | less than 45 % of control
